Holding throughout (assay): cells
The subject of assay [1] is endothelial tube formation in co-cultures of ECFCs and ADSCs treated with VEGF. In kind it is cell-based, human.
The subject of assay [2] is nuclear β-catenin in C2C12 cells. In kind it is cell-based.
Another assay deals with INS-1E cells. In kind it is cell-based, rat.
The subject of another assay is NCI-H716 cells. In kind it is cell-based, Human.
Another assay deals with HeLa cells. In kind it is cell-based. The following applies: HeLa, read-out: CellCycle G2/M.
A further assay has as its system DLD-1. In kind it is cell-based.
In another assay the test system is SW480. In kind it is cell-based.
The test system of another assay is HCT116. In kind it is cell-based.
The subject of assay [3] is HCT116 cells treated with a GSK3β inhibitor. In kind it is cell-based.
A further assay deals with Colo320. In kind it is cell-based.
The next assay deals with HT-29. In kind it is cell-based.
A further assay relates to SNU-C1. In kind it is cell-based.
Another assay has as its system RKO. In kind it is cell-based.
Setting [4] is: Mus musculus, C2C12, S2 Table; module primary assay; 20 / 20.1 codes per legend; read-out: Wnt Pathway.
Setting [5] is: Rattus norvegicus, INS-1E; read-out: Insulin Secretion.
The mark [6] stands for this setting: Homo sapiens, NCI-H716; read-out: GLP 1 Secretion.
The mark [7] stands for this setting: Homo sapiens, S2 Table, 20 = no response at highest concentration.
Setting [8] is: Homo sapiens, DLD-1, basal, DLD-1, read-out: Basal_Viability ATP DLD-1.
Setting [9] is: Homo sapiens, SW480, basal, SW480, read-out: Basal_Viability ATP SW480.
[10] abbreviates: Homo sapiens; basal; Colo 320; read-out: Basal_Viability ATP Colo 320.
The mark [11] stands for this setting: Homo sapiens, basal, HT-29, read-out: Basal_Viability ATP HT-29.
[12] abbreviates: Homo sapiens; basal; RKO; read-out: Basal_Viability ATP RKO.
Where [13] appears, read: Homo sapiens, SNU-C1, basal, SNU-C1, read-out: Basal_Viability ATP SNU-C1.
[14] abbreviates: Homo sapiens, SW480, read-out: Basal_Viability ATP SW480.
The mark [15] stands for this setting: Homo sapiens, COLO 320, read-out: Basal_Viability ATP Colo 320.
Setting [16] is: Homo sapiens, RKO, read-out: Basal_Viability ATP RKO.
The mark [17] stands for this setting: Homo sapiens, SNU-C1, read-out: Basal_Viability ATP SNU-C1.
The mark [18] stands for this setting: Mus musculus, C2C12, IC50 / EC50; C2C12 beta-catenin translocation; read-out: Wnt Pathway.
[19] abbreviates: Rattus norvegicus; IC50 / EC50; INS-1E; read-out: Insulin Secretion.
The mark [20] stands for this setting: Homo sapiens; IC50 / EC50; NCI-H716; read-out: GLP 1 Secretion.
The mark [21] stands for this setting: Homo sapiens, HT-29, read-out: Basal_Viability ATP HT-29.
Where [22] appears, read: Homo sapiens, HCT-116, basal, HCT116, read-out: Basal_Viability ATP HCT116.
The mark [23] stands for this setting: Homo sapiens, HCT-116, HCT116 pretreated with GSK3b inhibitor, read-out: GSK3b inh pretreated_Viability ATP HCT116.
Where [24] appears, read: Mus musculus, C2C12, Table 2; C2C12; […]; 20 / 20.1 coded; read-out: Wnt pot. EC50.
Setting [25] is: Rattus norvegicus, INS-1E; read-out: Ins. sec. EC50.
Setting [26] is: Homo sapiens, NCI-H716; read-out: GLP1 sec. EC50.
[27] abbreviates: Homo sapiens, DLD-1, 72 h, Table 2, 72 h, Cell TiterGlo, non-adherent, 20 coded, read-out: DLD-1 viab. IC50.
The mark [28] stands for this setting: Homo sapiens, COLO 320; Table 2; 72 h, Cell TiterGlo, non-adherent; 20 coded; read-out: Colo320 viab. IC50.
The mark [29] stands for this setting: Homo sapiens, HT-29, Table 2, 72 h, Cell TiterGlo, non-adherent, 20 coded, read-out: HT-29 viab. IC50.
[30] abbreviates: Homo sapiens, RKO; Table 2; 72 h, Cell TiterGlo, non-adherent; 20 coded; read-out: RKO viab. IC50.
The mark [31] stands for this setting: Homo sapiens, SNU-C1, 72 h, Table 2, 72 h, Cell TiterGlo, non-adherent, 20 coded, read-out: SNU-C1 viab. IC50.

Like-named read-outs stand apart in the source and are kept apart here. A value given as a limit tells only on which side of the number the result lay.

For `Cc1nc2ccccc2n1Cc1ccc(Cl)cc1` [1-P-chlorobenzyl-2-methylbenzimidazole], the IC50 in [1] (IC50 / EC50; endothelial tube area, ADSC/ECFC co-culture; read-out: Anti-Angiogenesis) is 7.38 µM; in the assay on DLD-1 (basal, read-out: Basal_Viability ATP DLD-1), greater than 20000 nM; with SW480 (basal, read-out: Basal_Viability ATP SW480) it was 5.33 µM; in the assay on HCT116 (basal, read-out: Basal_Viability ATP HCT116), 1220 nM; in assay [3] (GSK3b inhibitor pretreated, read-out: GSK3b inh pretreated_Viability ATP HCT116), 12 µM; with Colo320 (basal; read-out: Basal_Viability ATP Colo 320), 15.2 µM. Besides, the IC50 is greater than 20 µM in the assay with HT-29 (basal, read-out: Basal_Viability ATP HT-29) and greater than 20 µM in the assay on SNU-C1 (basal, read-out: Basal_Viability ATP SNU-C1). The EC50 (in assay [2] (IC50 / EC50; C2C12 beta-catenin translocation; read-out: Wnt Pathway); in the assay with INS-1E cells (IC50 / EC50; INS-1E; read-out: Insulin Secretion); with NCI-H716 cells (IC50 / EC50; NCI-H716; read-out: GLP 1 Secretion); with HeLa cells (IC50 / EC50)) was greater than 10 µM in each case.

For `O=c1[nH]cc(F)c(=O)[nH]1` [Fluorouracil], the IC50 in assay [1] (Homo sapiens; read-out: Anti-Angiogenesis) was greater than 10 µM; in the assay on DLD-1 (setting [8]), greater than 20000 nM; in the assay on SW480 (setting [9]) it was greater than 20 µM; in the assay with Colo320 (setting [10]), greater than 20 µM; in the assay on HT-29 (setting [11]) it was greater than 20 µM; in the assay with RKO (setting [12]), greater than 20 µM. For the same compound, in the assay with SNU-C1 (setting [13]), the IC50 was greater than 20 µM. For the same compound, the EC50 (in [2] (setting [4]); with INS-1E cells (setting [5]); in the assay with NCI-H716 cells (setting [6]); with HeLa cells (setting [7])) was greater than 10 µM in each case.

Consider `COc1cc(NC(C)CCCN)c2ncccc2c1` (stereo not drawn) [Primaquine], for which the IC50 in assay [1] (Homo sapiens, read-out: Anti-Angiogenesis) is greater than 10 µM; in the assay on DLD-1 (Homo sapiens, DLD-1, read-out: Basal_Viability ATP DLD-1), greater than 20000 nM; in the assay on SW480 (setting [14]) it was greater than 20 µM; in the assay on HCT116 (Homo sapiens, HCT-116, read-out: Basal_Viability ATP HCT116), 1880 nM; in assay [3] (Homo sapiens, HCT-116, read-out: GSK3b inh pretreated_Viability ATP HCT116), greater than 20 µM; in the assay with Colo320 (setting [15]), greater than 20 µM. Further, the IC50 in the assay on RKO (setting [16]) and with SNU-C1 (setting [17]) was greater than 20 µM in each case. Further, the EC50 was greater than 10 µM in assay [2] (Mus musculus, C2C12, read-out: Wnt Pathway); greater than 10 µM in the assay with INS-1E cells (Rattus norvegicus, INS-1E, read-out: Insulin Secretion); greater than 10 µM in the assay on NCI-H716 cells (Homo sapiens, NCI-H716, read-out: GLP 1 Secretion); greater than 10 µM in the assay with HeLa cells (Homo sapiens).

As for `CC(C)=CCNc1ncnc2c1ncn2[C@@H]1O[C@H](CO)[C@@H](O)[C@H]1O` [Riboprine], the IC50 in assay [1] (Homo sapiens, IC50 / EC50; endothelial tube area, ADSC/ECFC co-culture; read-out: Anti-Angiogenesis) was 2.66 µM; with HT-29 (setting [21]), greater than 20 µM; with SNU-C1 (setting [17]) it was 9.01 µM. The EC50 in assay [2] (setting [18]) is greater than 10 µM; with INS-1E cells (setting [19]) it was greater than 10 µM; with NCI-H716 cells (setting [20]) it was greater than 10 µM; in the assay with HeLa cells (Homo sapiens, IC50 / EC50), greater than 10 µM.

Take `Nc1nc(Cl)nc2c1ncn2[C@@H]1O[C@H](CO)[C@@H](O)[C@@H]1F` [clofarabine]: the EC50 (in assay [2] (setting [4]); in the assay on INS-1E cells (setting [5]); in the assay with NCI-H716 cells (setting [6]); in the assay on HeLa cells (setting [7])) was greater than 10 µM throughout. For the same compound, the IC50 is 164 nM in the assay on DLD-1 (setting [8]); 1.2 µM with SW480 (setting [9]); 1 nM in the assay on HCT116 (setting [22]); 0.001 µM in assay [3] (setting [23]); greater than 20 µM in the assay with Colo320 (setting [10]); greater than 20 µM in the assay on HT-29 (setting [11]). The IC50 is 0.001 µM in the assay on RKO (setting [12]) and greater than 20 µM in the assay on SNU-C1 (setting [13]).

For the compound `CC[C@H]1CN2CCc3cc(OC)c(OC)cc3[C@@H]2C[C@@H]1C[C@H]1NCCc2cc(OC)c(OC)cc21` [emetine], the EC50 in assay [2] (setting [18]) was greater than 10 µM; in the assay with INS-1E cells (setting [19]) it was greater than 10 µM; with NCI-H716 cells (setting [20]), greater than 10 µM; in the assay on HeLa cells (Homo sapiens, IC50 / EC50) it was greater than 10 µM. Also, the IC50 came out at 11.6 nM in the assay on DLD-1 (Homo sapiens, DLD-1, basal, read-out: Basal_Viability ATP DLD-1); 0.001 µM with SW480 (Homo sapiens, SW480, basal, read-out: Basal_Viability ATP SW480); 61.5 nM with HCT116 (Homo sapiens, HCT-116, basal, read-out: Basal_Viability ATP HCT116); 0.001 µM in [3] (Homo sapiens, HCT-116, GSK3b inhibitor pretreated, read-out: GSK3b inh pretreated_Viability ATP HCT116); 0.0221 µM in the assay on Colo320 (Homo sapiens, COLO 320; read-out: Basal_Viability ATP Colo 320); 0.0163 µM in the assay with HT-29 (setting [21]). Further, the IC50 came out at 0.00831 µM in the assay on RKO (Homo sapiens, RKO; read-out: Basal_Viability ATP RKO) and 0.00228 µM in the assay with SNU-C1 (Homo sapiens, SNU-C1, basal, read-out: Basal_Viability ATP SNU-C1).

On to `CC(C)n1c(/C=C/C(O)CC(O)CC(=O)O)c(-c2ccc(F)cc2)c2ccccc21` (stereo not drawn) [fluvastatin, reference compound], for which the EC50 (in [2] (setting [24]); with INS-1E cells (setting [25]); in the assay with NCI-H716 cells (setting [26]); with HeLa cells (setting [7])) was greater than 10 µM in each case. The IC50 in the assay on DLD-1 (setting [27]) is greater than 20000 nM; with Colo320 (setting [15]), 13 µM; with Colo320 (setting [28]) it was 13 µM; with HT-29 (setting [29]) it was greater than 20 µM; with RKO (setting [16]), 19.2 µM; with RKO (setting [30]), 19.2 µM. In addition, in the assay on SNU-C1 (setting [31]), the IC50 was greater than 20 µM.

Regarding `CCC(C)(C)C(=O)O[C@H]1C[C@@H](C)C=C2C=C[C@H](C)[C@H](CC[C@@H]3C[C@@H](O)CC(=O)O3)[C@H]21` [simvastatin, reference compound], the EC50 is greater than 10 µM in [2] (setting [24]); greater than 10 µM with INS-1E cells (setting [25]); 3.29 µM with NCI-H716 cells (setting [6]); 3.3 µM with NCI-H716 cells (setting [26]); greater than 10 µM with HeLa cells (setting [7]). In addition, the IC50 in the assay with DLD-1 (setting [27]) is greater than 20000 nM; in the assay with SW480 (Homo sapiens, SW480, 72 h, Table 2, 72 h, Cell TiterGlo, non-adherent, 20 coded, read-out: SW480 viab. IC50), 5.9 µM; in the assay on SW480 (setting [14]) it was 5.93 µM; with HCT116 (Homo sapiens, HCT-116, 72 h, read-out: HCT-116 viab. IC50, Table 2, basal, 72 h, Cell TiterGlo, non-adherent, 20 coded) it was greater than 20000 nM; in [3] (Homo sapiens, HCT-116, read-out: HCT-116 (GSK3β) viab. IC50, Table 2, GSK3β inhibitor LY2090314 20 nM, 72 h, Cell TiterGlo, 20 coded), 4.7 µM; in [3] (setting [23]) it was 4.73 µM. The IC50 is 4.9 µM with Colo320 (setting [28]); 4.94 µM in the assay on Colo320 (setting [10]); greater than 20 µM in the assay on HT-29 (setting [29]); greater than 20 µM in the assay on RKO (setting [30]); greater than 20 µM in the assay with SNU-C1 (setting [31]).

Regarding `CC[C@@]1(O)C(=O)OCc2c1cc1n(c2=O)Cc2cc3c(CN(C)C)c(O)ccc3nc2-1` [topotecan], the EC50 in assay [2] (Mus musculus, C2C12; read-out: Wnt Pathway) was 0.0179 µM; with INS-1E cells (setting [5]), greater than 10 µM; in the assay with NCI-H716 cells (setting [6]) it was greater than 10 µM; with HeLa cells (setting [7]) it was greater than 10 µM. The IC50 in the assay with DLD-1 (setting [8]) worked out at 177 nM; in the assay on SW480 (setting [9]), 0.233 µM; with HCT116 (setting [22]), 34.1 nM; in [3] (setting [23]) it was 0.00144 µM; in the assay with Colo320 (setting [15]), 9.42 µM; with HT-29 (setting [11]) it was 0.0246 µM. The IC50 in the assay with RKO (setting [12]) came to 0.0342 µM; with SNU-C1 (setting [13]), 0.301 µM.

The values are drawn from publication PMC4503722, “Novel Phenotypic Outcomes Identified for a Public Collection of Approved Drugs from a Publicly Accessible Panel of Assays” (PLoS ONE, 2015).
